In patent publication US20230085307A1, “PYRIDAZINONE COMPOUND AND HERBICIDE” (NISSAN CHEMICAL CORPORATION, priority 2019, published 2023):

System: late watergrass
Assay: Test Example 1: herbicidal activity, application before weed generation under submerged conditions (Table 16, symbol A)
Type: in vivo, late watergrass (Echinochloa oryzicola)
Conditions: amount of applied herbicide 320 g/ha
Procedure, shortened: (§1)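 Emulsion formulation, water-diluted to set dose, was put onto the flooded surface (4 cm depth, alluvial soil) the same day weeds were sown and 2.5-leaf rice transplanted. After 3 weeks at 25-30 °C under glass, each species was rated 0 (≤5% kill) to 5 (≥90% kill).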

Compound | Herbicidal effect, A: late watergrass
CCCC(=O)Oc1c(C)nn(C)c(=O)c1-c1c(-c2ccc(Cl)cc2)sc2cc(Cl)ccc12 [3-034] | 3 (Herbicidal rate of 40% or more and less than 70%)
CCOc1ccccc1-c1sc2cc(Cl)ccc2c1-c1c(O)c(C)nn(C)c1=O [3-039] | 2 (Herbicidal rate of 20% or more and less than 40%)
CCCC(=O)Oc1c(C)nn(C)c(=O)c1-c1c(-c2ccccc2OCC)sc2cc(Cl)ccc12 [3-040] | 4 (Herbicidal rate of 70% or more and less than 90%)

System: Japanese bulrush
Assay: Test Example 1: herbicidal activity, application before weed generation under submerged conditions (Table 16, symbol B)
Type: in vivo, Japanese bulrush (Schoenoplectus juncoides)
Conditions: amount of applied herbicide 320 g/ha
Procedure, shortened: as §1

Compound | Herbicidal effect, B: Japanese bulrush
CCCC(=O)Oc1c(C)nn(C)c(=O)c1-c1c(-c2ccc(Cl)cc2)sc2cc(Cl)ccc12 [3-034] | 3 (Herbicidal rate of 40% or more and less than 70%)
CCOc1ccccc1-c1sc2cc(Cl)ccc2c1-c1c(O)c(C)nn(C)c1=O [3-039] | 1 (Herbicidal rate of 5% or more and less than 20%)
CCCC(=O)Oc1c(C)nn(C)c(=O)c1-c1c(-c2ccccc2OCC)sc2cc(Cl)ccc12 [3-040] | 3 (Herbicidal rate of 40% or more and less than 70%)

System: late watergrass
Assay: Test Example 2: herbicidal activity, application during weed generation under submerged conditions (Table 17, symbol A)
Type: in vivo, late watergrass (Echinochloa oryzicola)
Conditions: AAH 320 g/ha; application during weed generation, submerged conditions
Procedure, shortened: (§2)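 In this pot test, flooded alluvial soil (water depth 4 cm) holds all three species sown as a mixture. Once seedlings have one to two leaves, the compound's emulsion, thinned with water to the intended dose, is poured on the water; grading follows after three weeks on the earlier criteria.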

Compound | herbicidal effect rating, A: late watergrass
CCCC(=O)Oc1c(C)nn(C)c(=O)c1-c1c(-c2ccc(Cl)cc2)sc2cc(Cl)ccc12 [3-034] | 3 (Herbicidal rate of 40% or more and less than 70%)
CCOc1ccccc1-c1sc2cc(Cl)ccc2c1-c1c(O)c(C)nn(C)c1=O [3-039] | 2 (Herbicidal rate of 20% or more and less than 40%)
CCCC(=O)Oc1c(C)nn(C)c(=O)c1-c1c(-c2ccccc2OCC)sc2cc(Cl)ccc12 [3-040] | 2 (Herbicidal rate of 20% or more and less than 40%)

System: oval-leafed pondweed
Assay: Test Example 2: herbicidal activity, application during weed generation under submerged conditions (Table 17, symbol C)
Type: in vivo, oval-leafed pondweed (Monochoria vaginalis)
Conditions: AAH 320 g/ha; application during weed generation, submerged conditions
Procedure, shortened: as §2

Compound | herbicidal effect rating, C: oval-leafed pondweed
CCCC(=O)Oc1c(C)nn(C)c(=O)c1-c1c(-c2ccc(Cl)cc2)sc2cc(Cl)ccc12 [3-034] | 0 (Herbicidal rate of 5% or less (almost no effect))
CCOc1ccccc1-c1sc2cc(Cl)ccc2c1-c1c(O)c(C)nn(C)c1=O [3-039] | 0 (Herbicidal rate of 5% or less (almost no effect))
CCCC(=O)Oc1c(C)nn(C)c(=O)c1-c1c(-c2ccccc2OCC)sc2cc(Cl)ccc12 [3-040] | 3 (Herbicidal rate of 40% or more and less than 70%)

System: barnyard grass
Assay: Test Example 3: herbicidal effect by foliage application, Wagner pot (Table 18, symbol H)
Type: in vivo, barnyard grass (Echinochloa crus-galli)
Conditions: 320 g/ha
Procedure, shortened: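 Plants were sown in alluvial soil held under 0.1–0.5 cm standing water and grown 14 days in a greenhouse at 25–30 °C. An emulsifiable formulation, water-diluted to the set dose, was then sprayed onto the foliage, and effects were scored three weeks later using previously defined criteria.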

Compound | herbicidal effect on barnyard grass (H)
CCCC(=O)Oc1c(C)nn(C)c(=O)c1-c1c(-c2ccc(Cl)cc2)sc2cc(Cl)ccc12 [3-034] | 5 (Herbicidal rate of 90% or more (almost completely withered))
CCOc1ccccc1-c1sc2cc(Cl)ccc2c1-c1c(O)c(C)nn(C)c1=O [3-039] | 4 (Herbicidal rate of 70% or more and less than 90%)
CCCC(=O)Oc1c(C)nn(C)c(=O)c1-c1c(-c2ccccc2OCC)sc2cc(Cl)ccc12 [3-040] | 5 (Herbicidal rate of 90% or more (almost completely withered))

System: southern crabgrass
Assay: Test Example 4: herbicidal effect by soil treatment (Table 19, symbol F)
Type: in vivo, southern crabgrass (Digitaria ciliaris)
Conditions: amount of applied herbicide 320 g/ha
Procedure, shortened: (§3)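 Three weeks of greenhouse growth at 25° C. to 30° C. followed a uniform surface spray of water-diluted emulsion at a predetermined herbicide amount. Seeds had been sown beforehand under about 1.5 cm of sterilized diluvial soil. Grading followed criteria set out in an earlier test.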

Compound | F: southern crabgrass, herbicidal effect grade
CCCC(=O)Oc1c(C)nn(C)c(=O)c1-c1c(-c2ccc(Cl)cc2)sc2cc(Cl)ccc12 [3-034] | 0 (Herbicidal rate of 5% or less (almost no effect))
CCOc1ccccc1-c1sc2cc(Cl)ccc2c1-c1c(O)c(C)nn(C)c1=O [3-039] | 5 (Herbicidal rate of 90% or more (almost completely withered))
CCCC(=O)Oc1c(C)nn(C)c(=O)c1-c1c(-c2ccccc2OCC)sc2cc(Cl)ccc12 [3-040] | 1 (Herbicidal rate of 5% or more and less than 20%)

System: barnyard grass
Assay: Test Example 4: herbicidal effect by soil treatment (Table 19, symbol H)
Type: in vivo, barnyard grass (Echinochloa crus-galli)
Conditions: amount of applied herbicide 320 g/ha
Procedure, shortened: as §3

Compound | H: barnyard grass, herbicidal effect grade
CCCC(=O)Oc1c(C)nn(C)c(=O)c1-c1c(-c2ccc(Cl)cc2)sc2cc(Cl)ccc12 [3-034] | 0 (Herbicidal rate of 5% or less (almost no effect))
CCOc1ccccc1-c1sc2cc(Cl)ccc2c1-c1c(O)c(C)nn(C)c1=O [3-039] | 4 (Herbicidal rate of 70% or more and less than 90%)
CCCC(=O)Oc1c(C)nn(C)c(=O)c1-c1c(-c2ccccc2OCC)sc2cc(Cl)ccc12 [3-040] | 0 (Herbicidal rate of 5% or less (almost no effect))

System: blackgrass
Assay: Test Example 4: herbicidal effect by soil treatment (Table 19, symbol J)
Type: in vivo, blackgrass (Alopecurus myosuroides)
Conditions: amount of applied herbicide 320 g/ha
Procedure, shortened: as §3

Compound | J: blackgrass, herbicidal effect grade
CCCC(=O)Oc1c(C)nn(C)c(=O)c1-c1c(-c2ccc(Cl)cc2)sc2cc(Cl)ccc12 [3-034] | 0 (Herbicidal rate of 5% or less (almost no effect))
CCOc1ccccc1-c1sc2cc(Cl)ccc2c1-c1c(O)c(C)nn(C)c1=O [3-039] | 0 (Herbicidal rate of 5% or less (almost no effect))
CCCC(=O)Oc1c(C)nn(C)c(=O)c1-c1c(-c2ccccc2OCC)sc2cc(Cl)ccc12 [3-040] | 0 (Herbicidal rate of 5% or less (almost no effect))

System: chickweed
Assay: Test Example 4: herbicidal effect by soil treatment (Table 19, symbol P)
Type: in vivo, common chickweed (Stellaria media)
Conditions: amount of applied herbicide 320 g/ha
Procedure, shortened: as §3

Compound | P: chickweed, herbicidal effect grade
CCCC(=O)Oc1c(C)nn(C)c(=O)c1-c1c(-c2ccc(Cl)cc2)sc2cc(Cl)ccc12 [3-034] | 3 (Herbicidal rate of 40% or more and less than 70%)
CCOc1ccccc1-c1sc2cc(Cl)ccc2c1-c1c(O)c(C)nn(C)c1=O [3-039] | 5 (Herbicidal rate of 90% or more (almost completely withered))
CCCC(=O)Oc1c(C)nn(C)c(=O)c1-c1c(-c2ccccc2OCC)sc2cc(Cl)ccc12 [3-040] | 4 (Herbicidal rate of 70% or more and less than 90%)

System: southern crabgrass
Assay: Test Example 5: herbicidal effect by foliage application, plastic box (Table 20, symbol F)
Type: in vivo, southern crabgrass (Digitaria ciliaris)
Conditions: foliage application, 320 g/ha, three weeks after application
Procedure, shortened: (§4)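 Plants sown in sterilized diluvial soil and grown 14 days in a greenhouse at 25° C to 30° C, then sprayed on the foliage with the compound's emulsion diluted in water to a predetermined herbicide amount. Injury to weeds and crops scored three weeks after application on a visual rating scale.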

Compound | F: southern crabgrass, herbicidal effect grade
CCCC(=O)Oc1c(C)nn(C)c(=O)c1-c1c(-c2ccc(Cl)cc2)sc2cc(Cl)ccc12 [3-034] | 3 (Herbicidal rate of 40% or more and less than 70%)
CCOc1ccccc1-c1sc2cc(Cl)ccc2c1-c1c(O)c(C)nn(C)c1=O [3-039] | 5 (Herbicidal rate of 90% or more (almost completely withered))
CCCC(=O)Oc1c(C)nn(C)c(=O)c1-c1c(-c2ccccc2OCC)sc2cc(Cl)ccc12 [3-040] | 4 (Herbicidal rate of 70% or more and less than 90%)

System: green foxtail
Assay: Test Example 5: herbicidal effect by foliage application, plastic box (Table 20, symbol G)
Type: in vivo, green foxtail (Setaria viridis)
Conditions: foliage application, 320 g/ha, three weeks after application
Procedure, shortened: as §4

Compound | G: green foxtail, herbicidal effect grade
CCCC(=O)Oc1c(C)nn(C)c(=O)c1-c1c(-c2ccc(Cl)cc2)sc2cc(Cl)ccc12 [3-034] | 4 (Herbicidal rate of 70% or more and less than 90%)
CCOc1ccccc1-c1sc2cc(Cl)ccc2c1-c1c(O)c(C)nn(C)c1=O [3-039] | 5 (Herbicidal rate of 90% or more (almost completely withered))
CCCC(=O)Oc1c(C)nn(C)c(=O)c1-c1c(-c2ccccc2OCC)sc2cc(Cl)ccc12 [3-040] | 4 (Herbicidal rate of 70% or more and less than 90%)

System: wild oat
Assay: Test Example 5: herbicidal effect by foliage application, plastic box (Table 20, symbol I)
Type: in vivo, wild oat (Avena fatua)
Conditions: foliage application, 320 g/ha, three weeks after application
Procedure, shortened: as §4

Compound | I: wild oat, herbicidal effect grade
CCCC(=O)Oc1c(C)nn(C)c(=O)c1-c1c(-c2ccc(Cl)cc2)sc2cc(Cl)ccc12 [3-034] | 3 (Herbicidal rate of 40% or more and less than 70%)
CCOc1ccccc1-c1sc2cc(Cl)ccc2c1-c1c(O)c(C)nn(C)c1=O [3-039] | 1 (Herbicidal rate of 5% or more and less than 20%)
CCCC(=O)Oc1c(C)nn(C)c(=O)c1-c1c(-c2ccccc2OCC)sc2cc(Cl)ccc12 [3-040] | 1 (Herbicidal rate of 5% or more and less than 20%)

System: windgrass
Assay: Test Example 5: herbicidal effect by foliage application, plastic box (Table 20, symbol L)
Type: in vivo, windgrass (Apera spica-venti)
Conditions: foliage application, 320 g/ha, three weeks after application
Procedure, shortened: as §4

Compound | L: windgrass, herbicidal effect grade
CCCC(=O)Oc1c(C)nn(C)c(=O)c1-c1c(-c2ccc(Cl)cc2)sc2cc(Cl)ccc12 [3-034] | 5 (Herbicidal rate of 90% or more (almost completely withered))
CCOc1ccccc1-c1sc2cc(Cl)ccc2c1-c1c(O)c(C)nn(C)c1=O [3-039] | 4 (Herbicidal rate of 70% or more and less than 90%)
CCCC(=O)Oc1c(C)nn(C)c(=O)c1-c1c(-c2ccccc2OCC)sc2cc(Cl)ccc12 [3-040] | 5 (Herbicidal rate of 90% or more (almost completely withered))

System: redroot pigweed
Assay: Test Example 5: herbicidal effect by foliage application, plastic box (Table 20, symbol N)
Type: in vivo, redroot pigweed (Amaranthus retroflexus)
Conditions: foliage application, 320 g/ha, three weeks after application
Procedure, shortened: as §4

Compound | N: redroot pigweed, herbicidal effect grade
CCCC(=O)Oc1c(C)nn(C)c(=O)c1-c1c(-c2ccc(Cl)cc2)sc2cc(Cl)ccc12 [3-034] | 4 (Herbicidal rate of 70% or more and less than 90%)
CCOc1ccccc1-c1sc2cc(Cl)ccc2c1-c1c(O)c(C)nn(C)c1=O [3-039] | 4 (Herbicidal rate of 70% or more and less than 90%)
CCCC(=O)Oc1c(C)nn(C)c(=O)c1-c1c(-c2ccccc2OCC)sc2cc(Cl)ccc12 [3-040] | 5 (Herbicidal rate of 90% or more (almost completely withered))

System: lambsquarters
Assay: Test Example 5: herbicidal effect by foliage application, plastic box (Table 20, symbol O)
Type: in vivo, lambsquarters (Chenopodium album)
Conditions: foliage application, 320 g/ha, three weeks after application
Procedure, shortened: as §4

Compound | O: lambsquarters, herbicidal effect grade
CCCC(=O)Oc1c(C)nn(C)c(=O)c1-c1c(-c2ccc(Cl)cc2)sc2cc(Cl)ccc12 [3-034] | 4 (Herbicidal rate of 70% or more and less than 90%)
CCOc1ccccc1-c1sc2cc(Cl)ccc2c1-c1c(O)c(C)nn(C)c1=O [3-039] | 3 (Herbicidal rate of 40% or more and less than 70%)
CCCC(=O)Oc1c(C)nn(C)c(=O)c1-c1c(-c2ccccc2OCC)sc2cc(Cl)ccc12 [3-040] | 2 (Herbicidal rate of 20% or more and less than 40%)

System: persian speedwell
Assay: Test Example 5: herbicidal effect by foliage application, plastic box (Table 20, symbol R)
Type: in vivo, Persian speedwell (Veronica persica)
Conditions: foliage application, 320 g/ha, three weeks after application
Procedure, shortened: as §4

Compound | R: persian speedwell, herbicidal effect grade
CCCC(=O)Oc1c(C)nn(C)c(=O)c1-c1c(-c2ccc(Cl)cc2)sc2cc(Cl)ccc12 [3-034] | 5 (Herbicidal rate of 90% or more (almost completely withered))
CCOc1ccccc1-c1sc2cc(Cl)ccc2c1-c1c(O)c(C)nn(C)c1=O [3-039] | 5 (Herbicidal rate of 90% or more (almost completely withered))
CCCC(=O)Oc1c(C)nn(C)c(=O)c1-c1c(-c2ccccc2OCC)sc2cc(Cl)ccc12 [3-040] | 4 (Herbicidal rate of 70% or more and less than 90%)
